Measurements published in article PMC12291851, “Hydrogen Sulfide (H2S)-Donating Formyl Peptide Receptor 2 (FPR2) Agonists: Design, Synthesis, and Biological Evaluation in Primary Mouse Microglia Culture” (Antioxidants, 2025).

Tests used:
[1] = test system: mouse models of autism spectrum disorder; parameters: method as in PMID 35215274; conditions: chronic administration; ref [22]; cited from earlier work
[2] = test system: LPS-stimulated rat primary microglial cells and mice organotypic hippocampal cultures; conditions: LPS stimulation; ref [19],[20]; cited from earlier work
[3] = test system: HepG2 cells; assay: Intracellular H2S release with WSP-1 probe; assay type: cell-based, human; conditions: HepG2, tested concentrations 100-300 μM, 60 min
Procedure: All cell culture reagents were purchased from S.I.A.L. S.r.l. (Rome, Italy). WSP-1 (Washington State Probe-1, 3′-methoxy-3-oxo-3H-spiro[isobenzofuran-1,9′-xanthen]-6′-yl 2-(pyridine-2-yl-disulfanyl benzoate), was obtained from Cayman Chemical (Cayman, Ann Arbor, MI, USA). HepG2, human hepatocellular carcinoma cells, was obtained from American Type Culture Collection (ATCC, Bethesda, MD, USA). Human hepatocellular carcinoma cells (HepG2) were cultured in Minimum Essential Eagle’s Medium. This medium was supplemented with 10% (v/v) Fetal Bovine Serum, 1% (v/v) Glutamine and 1% (v/v) Penicillin-Streptomycin, 1% non-essential amino acids. Cells were cultivated at 37 °C with 5% CO2 at saturated humidity.
These experiments were carried out as already described. HepG2 cells were cultured up to about 90% confluence, and 24 h before the experiment cells were seeded into a 96-well flat bottom black plate (50,000 cells per well). After 24 h, the medium was replaced and cells were incubated at 37 °C for 30 min with a 10 mM solution of the fluorescent WSP-1 probe, which is highly sensitive for H2S detection. After incubation, the supernatant was removed and replaced with different concentrations (100, 200, and 300 µM) of the tested compounds dissolved in HBSS buffer. […] ADT 100 µM was used as a slow H2S-donor reference compound. Data were analyzed by one-way ANOVA for repeated measures, followed by post hoc Bonferroni’s multiple comparison test. Results are expressed as mean ± SEM of 3 independent experiments in triplicate. Statistical significance was accepted at a level of p < 0.05.
Next, we assessed the intracellular H2S release of thioureas and thioamides in HepG2 cells. The compounds were tested at different concentrations (100–300 μM) to evaluate if the release was dose-dependent. We also assayed ADT-OH and TIA as reference H2S-donors, and 3a as a negative control. The results were normalized to the fluorescence signal obtained with 100 μM ADT-OH.

[4] = test system: APP/PS1 mice; parameters: method as in PMID 34468933; conditions: in vivo administration, ref [21]; cited from earlier work
[5] = Cell-free H2S release fluorescence assay with probe 9 (7-azido-4-methylcoumarin); assay type: physicochemical; conditions: overall, 24 h and 48 h, PBS/DMSO 10%
Procedure: The H2S release fluorescence assay was carried out in a final volume of 100 μL PBS/DMSO 10% in black 96-well plates. Solutions with decreasing concentrations of each tested compound were prepared in PBS/DMSO 10%. Then, 50 μL of each solution was dispensed in triplicate in each well. Starting from a 10 mM stock solution, a 200 μM solution of probe 9 was prepared and stored in the dark until 50 μL was dispensed in each well. Blank wells containing only the probe at 100 μM in 100 μL of PBS/DMSO 10% are also prepared. A H2S calibration curve was obtained by incubating solutions of NaSH with the probe under the same conditions, although a different plate was used to minimize interferences due to the diffusion of rapidly released H2S. After 24 h and 48 h incubation in a humidified incubator at 37 °C, 5% CO2, fluorescence reads are obtained from each well with a plate reader TECAN M1000 Pro (Tecan, Männedorf, Switzerland), at λex = 350 nm and λem = 440 nm. Each experiment was replicated at least three times. The data were processed using Microsoft Excel (Microsoft, Redmond, WA, USA) and GraphPad Prism 7 (GraphPad Software, La Jolla, CA, USA).
Compound 9 is a turn-on fluorescent probe that features an azido moiety which can be reduced to amine by H2S, leading to the formation of the fluorescent derivative 7-amino-4-methylcoumarin 10 (λex = 350 nm and λem = 440 nm, Scheme 2). We included NaHS in the assay as a positive control and 3a as a negative control.

[6] = test system: HepG2 hepatocarcinoma cells; assay: MTT cell viability assay, MTT added directly to treated media; assay type: cell-based, human; conditions: HepG2, highest tested doses 200 and 20 µM, vehicle 5% DMSO
Procedure: The cytotoxicity of our compounds was assessed using the well-established MTT assay. HepG2 hepatocarcinoma cells were cultured in Minimum Essential Medium (MEM) (Euroclone, Pero, Italy), supplemented with 10% fetal bovine serum (Euroclone, Pero, Italy), 100 U/mL penicillin, and 100 µg/mL streptomycin sulfate, at 37 °C in a humidified incubator in 5% CO2 atmosphere. For the MTT assays, these cells were cultured up to about 90% confluence and were then seeded at a concentration of 20,000 cells per well in 96-well plates. After 24 h, the culture medium was replaced with solutions at various concentrations of each compound in MEM/DMSO 5% (v/v). Control wells were incorporated in the experimental design, consisting of vehicle (MEM/DMSO 5%) and pure medium controls.
In the first round of cytotoxicity assays, 0.5 mg/mL MTT was added to each well 2 or 24 h from treatment and left to incubate for 3–5 h. In the second round of cytotoxicity assays, at 2 or 24 h after treatment, treated media were removed, the cells were washed once in PBS, and fresh medium containing 0.5 mg/mL MTT was added to each well and left to incubate for 3–5 h.
Subsequently, the supernatant was removed, and the formazan crystals were dissolved in DMSO/EtOH 1:1 (100 µL/well). Absorbance values were then recorded from each well using a Victor 3 plate reader (PerkinElmer, Shelton, CT, USA) at 570 nm. All presented data were obtained from 3 to 5 experiments performed in triplicate. Cell viability values are expressed as mean ± S.E.M. and were plotted using GraphPad Prism 7.
Next, we assessed H2S release in a biological environment using human hepatocarcinoma HepG2 cells as a model. The intracellular release of H2S was detected with the WSP-1 probe, a turn-on fluorescent probe that selectively and irreversibly reacts with H2S. Considering that a high micromolar concentration of the test compounds is required to obtain a robust fluorescent signal, we first evaluated the compounds’ cytotoxicity after 2 h and 24 h of incubation with the MTT assay in HepG2 cells. […] We accounted for this by adding a vehicle control with 5% DMSO and a control without DMSO to our experimental design.

[7] = Cell-free MTT-based H2S release assay; assay type: physicochemical; conditions: 24 h incubation in MEM with 10% DMSO
Procedure: Solutions at different concentrations of each compound in 100 µL of serum-free MEM/10% DMSO with 0.5 mg/mL 3-(4,5-dimethylthiazol-2yl)-2,5-diphenyltetrazolium bromide (MTT) were incubated for 5 h or 24 h in a humidified incubator at 37 °C in 5% CO2 atmosphere. The experimental design comprised blank wells containing only medium and MTT, and a H2S calibration curve obtained by incubating nine solutions at decreasing concentrations (100 µM to 0.01 µM) of NaHS in medium and MTT. At the end of incubation time, the supernatant was removed, the […] crystals were dissolved in 100 µL DMSO/EtOH (1:1 v/v), and absorbance values were read using a Victor 3 plate reader (PerkinElmer, Shelton, CT, USA) at 570 nm. H2S values are expressed as mean ± S.E.M. of the results of three independent experiments conducted in triplicate, and were plotted using GraphPad Prism 7.
To decipher such results and considering the redox properties of H2S, we questioned if H2S released by our compounds in the culture media could interfere with the conversion of MTT (3-[4,5-dimethylthiazol-2-yl]-2,5-diphenyl tetrazolium bromide) to formazan, which is usually related to cell viability. Thus, we ran cell-free experiments in which MTT was used as the substrate to capture the reductive action of H2S. We found, in agreement with Gerő et al., that some of our thioureas and thioamides reduced MTT to formazan after 24 h incubation in MEM with 10% DMSO.

N#Cc1ccc(C[C@H](NC(=O)Nc2ccc(F)cc2)C(=O)NCC2(c3ccc(F)c(Cl)c3)CC2)cc1 [3a, (S)-N-[[1-(3-chloro-4-fluorophenyl)cyclopropyl]methyl]-3-(4-cyanophenyl)-2-[3-(4-fluorophenyl)ureido]propenamide, reference compound]
inflammatory markers and social behavior [1]: improved inflammatory markers, with a beneficial effect on social behavior | effect on LPS-induced pro- and anti-inflammatory cytokine levels [2]: anti-inflammatory properties | intracellular H2S release, WSP-1 fluorescence signal vs vehicle [3]: comparable to that of the vehicle | neuronal survival, microglial cell density and plaque load [4]: improvement of neuronal survival and decreased microglial cell density and plaque load | H2S release detected with probe 9 in aqueous media [5]: no response | mortality compared to vehicle (MTT) [6]: > 50% | absorbance signal (MTT reduction to formazan) indicative of H2S release [7]: no signal
